# Test system: T1, urease
# T1 construct: gene urea amidohydrolase; the jack bean enzyme is only a guess from the usual assay; Helicobacter pylori is named only as background
# Experiment: phenol-hypochlorite assay, […] nm
# Type: biochemical, Canavalia ensiformis
# Details: 17 mM urea, 30 °C, 50 min; enzyme source not stated
structure (smiles),measurement,value
NC(N)=S [Thiourea],Antiurease / IC50 μg mL^-1,11.57 ± 0.68 µg/mL

# Reference: article PMC12680549, “Impact of Seasonal Variation on Antioxidant, Enzyme Inhibitory, and Anti‐Inflammatory Potentials of Cistus creticus Leaf Extracts” (ChemistryOpen, 2025)
